Data published in paper PMC7529893, “Structural basis for substrate recognition and chemical inhibition of oncogenic MAGE ubiquitin ligases” (Nature Communications, 2020).

Target: T1, MAGE-A11:PCF11 interaction (GST-MAGE-A11 and FAM-PCF11_4) (Homo sapiens, UniProt P43364)
T1 construct: GST-MAGE-A11 MHD (human MAGE-A11 MHD amino acid 218-429); made in house; host or cells: E. coli BL21(DE3)
T1 sequence (P43364 218-429): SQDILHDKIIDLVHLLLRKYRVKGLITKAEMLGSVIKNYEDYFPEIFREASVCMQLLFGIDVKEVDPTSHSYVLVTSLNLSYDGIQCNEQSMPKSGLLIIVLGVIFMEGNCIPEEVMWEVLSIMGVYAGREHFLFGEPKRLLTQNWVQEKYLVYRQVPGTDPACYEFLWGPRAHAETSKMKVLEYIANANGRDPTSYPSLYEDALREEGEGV
Experiment: TR-FRET primary / single point screen at 15 µM
Assay type: binding
Outline: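 TR-FRET 520/490 nm emission ratio was read after 90 min at room temperature. Wells held 5 nM GST-MAGE-A11, 5 nM Tb-anti-GST, 200 nM FAM-PCF11_4 and 15 µM compound in Tris pH 7.5 buffer with MgCl2, BSA and DTT. %Inhibition was scaled to DMSO and minus-MAGE-A11 controls.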

[1] = single point TR-FRET screening of quinoline compounds against MAGE-A11:PCF11, 15 µM
[2] = single point TR-FRET screening of 797 quinoline compounds against MAGE-A11:PCF11

| percent inhibition (TR-FRET) [1] | percent inhibition (TR-FRET) [2] | SMILES |
| --- | --- | --- |
| 10.3448 | – | CCCN(CCCNc1ccnc2cc(Cl)ccc12)Cc1ccc[nH]1 [SJ000357445] |
| 16.0865 | – | Clc1ccc2c(NCCCN(Cc3ccccc3)CC3CC=CCC3)ccnc2c1 (stereo not drawn) [SJ000311182] |
| – | -2.393 | COc1ccc2ncc(C(=O)c3ccccc3)c(N3CCN(C)CC3)c2c1 [SJ000247245] |
| – | -3.448 | CCN1CCN(c2c(S(=O)(=O)c3ccccc3)cnc3ccc(C)cc23)CC1 [SJ000083956] |
| – | -271.048 | CCCN(CCCNc1c2ccc(Cl)cc2nc2ccc(OC)cc12)Cc1ccc[nH]1 [SJ000520923] |
| – | -68.0728 | CCCCCN(CCCCC)CC(=O)Nc1c2c(nc3ccccc13)CCC2 [SJ000487033] |
| – | -7.064 | CCOC(=O)c1cnc2ccc(OCC)cc2c1N1CCN(C)CC1 [SJ000279526] |
| – | 32.6515 | Cc1ccc(C)c(CN(CCCCNc2ccnc3cc(Cl)ccc23)Cc2ccccc2)c1 [SJ000361209] |
| -83.7446 | – | CCCN(CCCNc1c2ccc(Cl)cc2nc2ccc(OC)cc12)Cc1cc2ccccc2nc1Cl [SJ000522737] |
| 29.5992 | – | CCC(C)CN(CCCNc1ccnc2cc(Cl)ccc12)Cc1ccccc1 (stereo not drawn) [SJ000361186] |
| – | 24.8344 | Oc1ccccc1CN(CCCCNc1ccnc2cc(Cl)ccc12)Cc1ccccc1 [SJ000312697] |
| – | 11.7451 | Cc1cc(C)c(CN2CCC(Nc3ccnc4cc(Cl)ccc34)CC2)c(C)c1 [SJ000523084] |
| 26.5568 | – | CCCCCN(CCCNc1ccnc2cc(Cl)ccc12)Cc1ccccc1 [SJ000361173] |
| 26.5044 | – | CCCN(CCCNc1ccnc2cc(C(F)(F)F)ccc12)Cc1ccccc1O [SJ000361257] |
| 13.499 | – | CSC(C)CCNCCCNc1ccnc2cc(Cl)ccc12 (stereo not drawn) [SJ000361121] |
| – | 28.2792 | Clc1ccc2c(NCCCCN(Cc3ccccc3)Cc3ccc[nH]3)ccnc2c1 [SJ000312692] |
| 23.6478 | – | COc1ccc(CN(CCCNc2ccnc3cc(Cl)ccc23)Cc2ccccc2)cc1F [SJ000520437] |
| – | 35.3677 | CCC(C)CN(CCCCNc1ccnc2cc(Cl)ccc12)Cc1ccccc1 (stereo not drawn) [SJ000361208] |
| 25.4969 | – | Clc1ccc(CN(CCCNc2ccnc3cc(Cl)ccc23)Cc2ccccc2)c(Cl)c1 [SJ000361184] |

| percent inhibition (TR-FRET) [1] | percent inhibition (TR-FRET) [2] | SMILES |
| --- | --- | --- |
| -3.728 | – | COc1ccc2nc3cc(Cl)ccc3c(NCCCNCc3c4ccccc4cc4ccccc34)c2c1 [SJ000361099] |
| – | -12.8602 | Cc1csc(CN(CCCCNc2ccnc3cc(Cl)ccc23)Cc2ccccc2)n1 [SJ000520456] |
| 11.4651 | – | CCCN(CCCNc1ccnc2cc(C(F)(F)F)ccc12)Cc1c(F)cccc1C(F)(F)F [SJ000520481] |
| 9.266 | – | CCCN(CCCNc1ccnc2cc(Cl)ccc12)Cc1ccc(-c2ccccc2[N+](=O)[O-])o1 [SJ000523044] |
| 15.0359 | – | FC(F)(F)c1ccc2c(NCCCNCc3cccnc3)ccnc2c1 [SJ000521042] |
| 16.1546 | – | CCCN(CCCNc1c2ccc(Cl)cc2nc2ccc(OC)cc12)Cc1cccc(C(F)(F)F)c1 [SJ000522986] |
| – | -338.862 | COc1ccc(CNCCCNc2c3ccc(Cl)cc3nc3ccc(OC)cc23)cc1 [SJ000523033] |
| – | 0.2213 | CCN1CCN(c2c(S(=O)(=O)c3ccc(C)cc3)cnc3ccc(C)cc23)CC1 [SJ000083961] |
| – | -32.8549 | COc1ccc(N2CCN(c3c(S(=O)(=O)c4ccccc4)cnc4ccc(F)cc34)CC2)cc1 [SJ000083982] |
| 9.345 | – | CCCN(CCCNc1ccnc2cc(C(F)(F)F)ccc12)Cc1ncc[nH]1 [SJ000575181] |
| – | -3.251 | Cc1cc(N2CCN(CC(O)COCC(C)C)CC2)c2ccccc2n1 (stereo not drawn) [SJ000227654] |
| 2.945 | – | CCOC(=O)c1cnc2ccc(OC)cc2c1NCCCN1CCOCC1 [SJ000127046] |
| – | -2.261 | CCN1CCN(c2c(S(=O)(=O)c3ccc(Cl)cc3)cnc3ccccc23)CC1 [SJ000247367] |
| – | 69.4381 | Clc1ccc2c(NCCCCN(Cc3ccccc3)Cc3ccc4[nH]ccc4c3)ccnc2c1 [SJ000520434] |
| – | 2.575 | CCOC(=O)c1cnc2c(Cl)c(Cl)ccc2c1NCCN(C)C [SJ000027266] |
| 17.0172 | – | O=[N+]([O-])c1cccc(CN(CCCNc2ccnc3cc(Cl)ccc23)Cc2ccccc2)c1 [SJ000361178] |
| 23.5778 | – | CCCCN(CCC)CCCNc1ccnc2cc(C(F)(F)F)ccc12 [SJ000520477] |
| – | -4.989 | CCOc1ccc2ncc(S(=O)(=O)c3ccc(Cl)cc3)c(N3CCN(CC)CC3)c2c1 [SJ000083969] |
| 14.9659 | – | CSCCCNCCCNc1ccnc2cc(Cl)ccc12 [SJ000523051] |

| percent inhibition (TR-FRET) [1] | percent inhibition (TR-FRET) [2] | SMILES |
| --- | --- | --- |
| 0.9854 | – | CCCN(CCCNc1c2ccc(Cl)cc2nc2ccc(OC)cc12)Cc1ccc(C)o1 [SJ000520932] |
| – | -45.3213 | CCOc1ccc2ncc(S(=O)(=O)c3ccc(C)cc3)c(N3CCN(c4ccccc4)CC3)c2c1 [SJ000117049] |
| 32.8503 | – | CCCN(CCCNc1ccnc2cc(Cl)ccc12)Cc1ccc2ccccc2c1 [SJ000523040] |
| 24.558 | – | COc1ccccc1Oc1ccc2c(NCCCNCc3ccco3)ccnc2c1 [SJ000311210] |
| 12.4462 | – | C#Cc1ccccc1CN(CCC)CCCNc1ccnc2cc(Cl)ccc12 [SJ000523000] |
| 17.0835 | – | CCCN(CCCNc1ccnc2cc(Cl)ccc12)Cc1cc(F)ccc1OC [SJ000357494] |
| – | 30.2004 | Fc1ccc(CN(CCCCNc2ccnc3cc(Cl)ccc23)Cc2ccccc2)cc1 [SJ000522725] |
| 36.2507 | – | COc1ccc(Oc2ccc3c(NCCCNCc4ccco4)ccnc3c2)cc1 [SJ000311218] |
| 28.213 | – | Clc1ccc2c(NCCCN(Cc3ccccc3)CC3CCCCC3)ccnc2c1 [SJ000361171] |
| – | 4.96 | CCOC(=O)c1cnc2c(C)cc(Cl)cc2c1NCCN1CCOCC1 [SJ000129560] |
| 8.4544 | – | CCCCNCCCNc1ccnc2cc(Cl)ccc12 [SJ000521027] |
| – | -453.536 | COc1ccc2nc3cc(Cl)ccc3c(NCCCNCc3cccs3)c2c1 [SJ000361088] |
| – | -105.076 | CCCN(CCCNc1c2ccc(Cl)cc2nc2ccc(OC)cc12)Cc1ccc(CC)cc1 [SJ000522972] |
| – | -162.244 | CCCN(CCCNc1c2ccc(Cl)cc2nc2ccc(OC)cc12)Cc1cn(C)c2ccccc12 [SJ000522964] |
| 33.5128 | – | Clc1cccc(-c2ccc(CNCCCNc3ccnc4cc(Cl)ccc34)o2)c1 [SJ000523069] |
| – | 21.6545 | Clc1ccc2c(NCCCCN(Cc3ccccc3)Cc3cccc4c3OCO4)ccnc2c1 [SJ000520436] |
| 33.3803 | – | Clc1ccc2c(NCCCNCc3csc4ccccc34)ccnc2c1 [SJ000521033] |
| 18.5367 | – | CCCCNCCCNc1ccnc2cc(C(F)(F)F)ccc12 [SJ000521055] |
| 12.8437 | – | Clc1ccc2c(NCCCN(Cc3ccccc3)Cc3ccoc3)ccnc2c1 [SJ000361170] |
